Usually IC50 stands for the point on the concentration scale where inhibition reaches its midpoint.

The source of these data is ChEMBL document CHEMBL1152321, “Recent advances in the chemistry and biology of new generation taxoids” (J Nat Prod, 2009).

A short description of assay [1]: Resistance factor, ratio of IC50 for human LCC-6 cells expressing P-glycoprotein to IC50 for P-glycoprotein deficient wild type human LCC-6 cells. The class given is functional. Set-up: reference not given here.
Assay [2] has as its system MCF7. As to the kind of experiment: Resistance factor, ratio of IC50 for P-glycoprotein deficient wild type human MCF7 cells to IC50 for multidrug-resistant human NCI/ADR cells. The class given is functional.
Assay [3] in a line: Cytotoxicity against P-glycoprotein deficient wild type human LCC-6 cells after 72 hrs. The class given is functional, cell-based. To be noted: LCC-6, 72 h.
The next assay relates to HT-29. As to the kind of experiment: Cytotoxicity against human HT-29 cells after 72 hrs. Format: functional, cell-based. The following applies: HT-29, 72 h.
The test system of a further assay is NCI-H460. As to the kind of experiment: Cytotoxicity against human H460 cells after 72 hrs. Format: functional, cell-based. To be noted: NCI-H460, 72 h.
For assay [4], the system named is MCF7. The experiment in a line: Resistance factor, ratio of IC50 for human MCF7 cells expressing P-glycoprotein to IC50 for P-glycoprotein deficient wild type human MCF7 cells. Format: functional.
Assay [5] is described as follows: Cytotoxicity against human LCC-6 cells expressing P-glycoprotein after 72 hrs. Format: functional, cell-based. The following applies: LCC-6, 72 h.
Assay [6] deals with MCF7. As to the kind of experiment: Cytotoxicity against P-glycoprotein deficient wild type human MCF7 cells after 72 hrs. The class given is functional, cell-based. The following applies: MCF7, 72 h.
Assay [7] concerns MCF7. As to the kind of experiment: Cytotoxicity against human MCF7 cells expressing P-glycoprotein after 72 hrs. The class given is functional, cell-based. The following applies: MCF7, 72 h.

For `CCC(=O)O[C@H]1C(=O)[C@@]2(C)[C@H]([C@H](OC(=O)c3ccccc3)[C@]3(O)C[C@H](OC(=O)[C@H](O)[C@H](C=C(C)C)NC(=O)C4=CCCCC4)C(C)=C1C3(C)C)[C@]1(OC(C)=O)CO[C@@H]1C[C@@H]2O`, the Ratio in assay [1] is 9.2; in the assay on MCF7 [2] it was 13. In assay [3], the midpoint of inhibition, the IC50, lay at 1.2 nM.

Turning to `CCC(=O)O[C@H]1C(=O)[C@@]2(C)[C@H]([C@H](OC(=O)c3ccccc3)[C@]3(O)C[C@H](OC(=O)[C@H](O)[C@H](C=C(C)C)NC(=O)OC(C)(C)C)C(C)=C1C3(C)C)[C@]1(OC(C)=O)CO[C@@H]1C[C@@H]2O`, the Ratio in the assay with MCF7 [2] was 22.

`CCC(=O)O[C@H]1C(=O)[C@@]2(C)[C@H]([C@H](OC(=O)c3ccccc3)[C@]3(O)C[C@H](OC(=O)[C@H](O)[C@H](CC(C)C)NC(=O)OC(C)(C)C)C(C)=C1C3(C)C)[C@]1(OC(C)=O)CO[C@@H]1C[C@@H]2O`: the Ratio with MCF7 [2] is 15.

With `COC(=O)O[C@H]1C(=O)[C@@]2(C)[C@H]([C@H](OC(=O)c3cccc(OC)c3)[C@]3(O)C[C@H](OC(=O)[C@H](O)[C@@H](NC(=O)OC(C)(C)C)C(F)(F)F)C(C)=C1C3(C)C)[C@]1(OC(C)=O)CO[C@@H]1C[C@@H]2O`, the IC50 in the assay with HT-29 was 0.53 nM; in the assay on NCI-H460 it was 0.38 nM; in assay [5], 3.99 nM; with MCF7 [6], 0.17 nM; with MCF7 [7] it was 2.88 nM; in assay [3], 0.27 nM. In addition, the results for the Ratio (in [1]; with MCF7 [4]) were 15 and 17, respectively.

On to `CC(=O)O[C@H]1C(=O)[C@@]2(C)[C@H]([C@H](OC(=O)c3cccc(Cl)c3)[C@]3(O)C[C@H](OC(=O)[C@H](O)[C@@H](NC(=O)OC(C)(C)C)C(F)(F)F)C(C)=C1C3(C)C)[C@]1(OC(C)=O)CO[C@@H]1C[C@@H]2O`, for which the IC50 in the assay on HT-29 turned out to be 0.85 nM; in the assay on NCI-H460 it was 0.5 nM; in assay [5], 4.96 nM; with MCF7 [6], 0.4 nM; with MCF7 [7], 5.04 nM; in assay [3], 0.22 nM. For the same compound, the Ratio in assay [1] came to 23; in the assay with MCF7 [4], 13.

Turning to `CCC(=O)O[C@H]1C(=O)[C@@]2(C)[C@H]([C@H](OC(=O)c3cccc(F)c3)[C@]3(O)C[C@H](OC(=O)[C@H](O)[C@@H](NC(=O)OC(C)(C)C)C(F)(F)F)C(C)=C1C3(C)C)[C@]1(OC(C)=O)CO[C@@H]1C[C@@H]2O`, the IC50 worked out at 1.15 nM in the assay with HT-29; 0.59 nM with NCI-H460; 4.27 nM in assay [5]; 0.68 nM with MCF7 [6]; 3.78 nM with MCF7 [7]; 0.82 nM in assay [3]. Also, the values for the Ratio (in [1]; with MCF7 [4]) were 5.2 and 5.6, respectively.

`CC(=O)O[C@@]12CO[C@@H]1C[C@H](O)[C@@]1(C)C(=O)[C@H](OC(=O)N(C)C)C3=C(C)[C@@H](OC(=O)[C@H](O)[C@@H](NC(=O)OC(C)(C)C)C(F)F)C[C@@](O)([C@@H](OC(=O)c4cccc(Cl)c4)[C@H]21)C3(C)C`: the IC50 came to 0.58 nM in the assay with HT-29; 0.36 nM in the assay on NCI-H460; 3.87 nM in assay [5]; 0.31 nM in the assay on MCF7 [6]; 2.96 nM in the assay on MCF7 [7]; 0.21 nM in assay [3]. Besides, the Ratio is recorded as 18 in assay [1] and 9.5 with MCF7 [4].

In the case of `COC(=O)O[C@H]1C(=O)[C@@]2(C)[C@H]([C@H](OC(=O)c3cccc(OC)c3)[C@]3(O)C[C@H](OC(=O)[C@H](O)[C@@H](NC(=O)OC(C)(C)C)C(F)F)C(C)=C1C3(C)C)[C@]1(OC(C)=O)CO[C@@H]1C[C@@H]2O`, the IC50 came to 0.44 nM in the assay with HT-29; 0.3 nM in the assay on NCI-H460; 10.2 nM in assay [5]; 0.81 nM in the assay on MCF7 [6]; 6.59 nM with MCF7 [7]; 1.03 nM in [3]. For the same compound, the figures for the Ratio (in [1]; in the assay on MCF7 [4]) were 9.9 and 8.1, respectively.

Regarding `CC(=O)O[C@@]12CO[C@@H]1C[C@H](O)[C@@]1(C)C(=O)[C@H](OC(=O)N(C)C)C3=C(C)[C@@H](OC(=O)[C@H](O)[C@@H](NC(=O)OC(C)(C)C)C(F)(F)F)C[C@@](O)([C@@H](OC(=O)c4cccc(N=[N+]=[N-])c4)[C@H]21)C3(C)C`, the IC50 worked out at 0.5 nM with HT-29; 0.3 nM in the assay on NCI-H460; 3.52 nM in assay [5]; 0.47 nM with MCF7 [6]; 2.61 nM in the assay on MCF7 [7]; 1.27 nM in assay [3]. The Ratio is given as 2.8 in assay [1] and 5.6 in the assay with MCF7 [4].

As to `COc1cccc(C(=O)O[C@H]2[C@@H]3[C@]4(OC(C)=O)CO[C@@H]4C[C@H](O)[C@@]3(C)C(=O)[C@H](OC(=O)N(C)C)C3=C(C)[C@@H](OC(=O)[C@H](O)[C@@H](NC(=O)OC(C)(C)C)C(F)F)C[C@]2(O)C3(C)C)c1`, the IC50 in the assay on HT-29 was 0.43 nM; in the assay on NCI-H460 it was 0.4 nM; in [5], 7.06 nM; in the assay on MCF7 [6], 0.45 nM; in the assay with MCF7 [7] it was 4.51 nM; in assay [3] it was 0.69 nM. The Ratio (in [1]; with MCF7 [4]) was 10 each time.

On to `CCC(=O)O[C@H]1C(=O)[C@@]2(C)[C@H]([C@H](OC(=O)c3cccc(Cl)c3)[C@]3(O)C[C@H](OC(=O)[C@H](O)[C@@H](NC(=O)OC(C)(C)C)C(F)F)C(C)=C1C3(C)C)[C@]1(OC(C)=O)CO[C@@H]1C[C@@H]2O`, for which the IC50 is 0.43 nM in the assay with HT-29; 0.3 nM with NCI-H460; 4.71 nM in assay [5]; 0.44 nM in the assay on MCF7 [6]; 5.2 nM in the assay on MCF7 [7]; 0.52 nM in [3]. Also, the Ratio in assay [1] was 9.1; with MCF7 [4] it was 12.

As to `COc1cccc(C(=O)O[C@H]2[C@@H]3[C@]4(OC(C)=O)CO[C@@H]4C[C@H](O)[C@@]3(C)C(=O)[C@H](OC(=O)N(C)C)C3=C(C)[C@@H](OC(=O)[C@H](O)[C@@H](NC(=O)OC(C)(C)C)C(F)(F)F)C[C@]2(O)C3(C)C)c1`, the IC50 was 0.68 nM with HT-29; 0.35 nM with NCI-H460; 4.48 nM in assay [5]; 0.57 nM with MCF7 [6]; 1.84 nM in the assay with MCF7 [7]; 0.28 nM in assay [3]. Moreover, the Ratio in assay [1] came out at 16; with MCF7 [4], 3.2.

As to `CCC(=O)O[C@H]1C(=O)[C@@]2(C)[C@H]([C@H](OC(=O)c3cccc(OC)c3)[C@]3(O)C[C@H](OC(=O)[C@H](O)[C@@H](NC(=O)OC(C)(C)C)C(F)(F)F)C(C)=C1C3(C)C)[C@]1(OC(C)=O)CO[C@@H]1C[C@@H]2O`, the IC50 worked out at 0.54 nM in the assay on HT-29; 0.41 nM with NCI-H460; 4.24 nM in [5]; 0.19 nM in the assay with MCF7 [6]; 2.16 nM in the assay on MCF7 [7]; 0.45 nM in assay [3]. Moreover, the Ratio in [1] is given as 9; in the assay with MCF7 [4], 11.

`CC(=O)O[C@H]1C(=O)[C@@]2(C)[C@H]([C@H](OC(=O)c3cccc(F)c3)[C@]3(O)C[C@H](OC(=O)[C@H](O)[C@@H](NC(=O)OC(C)(C)C)C(F)F)C(C)=C1C3(C)C)[C@]1(OC(C)=O)CO[C@@H]1C[C@@H]2O`: the IC50 was found to be 0.35 nM with HT-29; 0.2 nM in the assay with NCI-H460; 10 nM in assay [5]; 0.44 nM with MCF7 [6]; 5.33 nM in the assay on MCF7 [7]; 0.52 nM in assay [3]. For the same compound, the results for the Ratio (in assay [1]; in the assay on MCF7 [4]) were 19 and 13, respectively.

For the compound `CCC(=O)O[C@H]1C(=O)[C@@]2(C)[C@H]([C@H](OC(=O)c3cccc(N=[N+]=[N-])c3)[C@]3(O)C[C@H](OC(=O)[C@H](O)[C@@H](NC(=O)OC(C)(C)C)C(F)F)C(C)=C1C3(C)C)[C@]1(OC(C)=O)CO[C@@H]1C[C@@H]2O`, the IC50 is 0.37 nM with HT-29; 0.27 nM in the assay with NCI-H460; 1.15 nM in [5]; 0.32 nM in the assay on MCF7 [6]; 0.96 nM in the assay with MCF7 [7]; 0.39 nM in [3]. Also, the results for the Ratio (in [1]; with MCF7 [4]) were 2.9 and 3, respectively.

As for `COC(=O)O[C@H]1C(=O)[C@@]2(C)[C@H]([C@H](OC(=O)c3cccc(N=[N+]=[N-])c3)[C@]3(O)C[C@H](OC(=O)[C@H](O)[C@@H](NC(=O)OC(C)(C)C)C(F)(F)F)C(C)=C1C3(C)C)[C@]1(OC(C)=O)CO[C@@H]1C[C@@H]2O`, the IC50 in the assay with HT-29 was determined as 0.4 nM; in the assay with NCI-H460, 0.2 nM; in [5], 4 nM; in the assay with MCF7 [6], 0.47 nM; in the assay on MCF7 [7] it was 2.92 nM; in assay [3] it was 1.09 nM. The Ratio in assay [1] is 3.7; in the assay on MCF7 [4], 6.2.

For the compound `CC(=O)O[C@H]1C(=O)[C@@]2(C)[C@H]([C@H](OC(=O)c3cccc(Cl)c3)[C@]3(O)C[C@H](OC(=O)[C@H](O)[C@@H](NC(=O)OC(C)(C)C)C(F)F)C(C)=C1C3(C)C)[C@]1(OC(C)=O)CO[C@@H]1C[C@@H]2O`, the IC50 was determined as 1.94 nM in the assay on HT-29; 0.49 nM in the assay with NCI-H460; 5.8 nM in assay [5]; 0.4 nM in the assay on MCF7 [6]; 6.48 nM in the assay with MCF7 [7]; 0.31 nM in assay [3]. In addition, the Ratio was found to be 19 in [1] and 16 in the assay on MCF7 [4].

In the case of `COC(=O)O[C@H]1C(=O)[C@@]2(C)[C@H]([C@H](OC(=O)c3cccc(N=[N+]=[N-])c3)[C@]3(O)C[C@H](OC(=O)[C@H](O)[C@@H](NC(=O)OC(C)(C)C)C(F)F)C(C)=C1C3(C)C)[C@]1(OC(C)=O)CO[C@@H]1C[C@@H]2O`, the IC50 in the assay with HT-29 came out at 0.36 nM; in the assay on NCI-H460, 0.23 nM; in assay [5] it was 2.06 nM; in the assay with MCF7 [6], 1.69 nM; in the assay on MCF7 [7] it was 2.56 nM; in assay [3], 0.26 nM. For the same compound, the Ratio in assay [1] was determined as 7.9; with MCF7 [4], 1.5.
